Test results: US8889878B2, “Haloalky-substituted amides as insecticides and acaricides” (Bayer CropScience AG, priority 2009, dated 2014)

Tests used:
[1] = logP by HPLC on reverse-phase column (EEC Directive 79/831 Annex V.A8); format: physicochemical
Method: The logP values reported in the above Tables and Preparation Examples were determined according to EEC Directive 79/831 Annex V.A8 by HPLC (High Performance Liquid Chromatography) on a reverse-phase column (C18). Temperature 43° C.

[2] = tested on: green peach aphid (Myzus persicae); assay: Myzus test (MYZUPE spray treatment), Example 17; format: in vivo; conditions: china cabbage leaf discs sprayed, after 6 days
Method: Myzus Test (MYZUPE Spray Treatment)
• Solvent: 78 parts by weight of acetone • 1.5 parts by weight of dimethylformamide • Emulsifier: 0.5 part by weight of alkylaryl polyglycol ether
To prepare an appropriate active ingredient formulation, 1 part by weight of active ingredient is mixed with the stated amounts of solvent and emulsifier, and the concentrate is diluted with emulsifier-containing water to the desired concentration. Leaf discs from china cabbage (Brassica pekinensis) infested by all stages of the green peach aphid (Myzus persicae) are sprayed with an active ingredient formulation of the desired concentration.
After 6 days, the efficacy in % is determined. 100% means that all aphids were killed; 0% means that no aphids were killed.

[3] = tested on: armyworm (Spodoptera frugiperda); assay: Spodoptera frugiperda test (SPODFR spray treatment), Example 15; format: in vivo; conditions: maize leaf discs sprayed, after 7 days
Method: Spodoptera frugiperda Test (SPODFR Spray Treatment)
(§1) • Solvent: 78.0 parts by weight of acetone • 1.5 parts by weight of dimethylformamide • Emulsifier: 0.5 part by weight of alkylaryl polyglycol ether
(§2) To prepare an appropriate active ingredient formulation, 1 part by weight of active ingredient is mixed with the stated amounts of solvent and emulsifier, and the concentrate is diluted with emulsifier-containing water to the desired concentration. Leaf discs from maize (Zea mays) are sprayed with an active ingredient formulation of the desired concentration and, after drying, populated with caterpillars of the armyworm (Spodoptera frugiperda).
After 7 days, the efficacy in % is determined. 100% means that all caterpillars were killed; 0% means that no caterpillars were killed.

[4] = tested on: mustard beetle (Phaedon cochleariae); assay: Phaedon test (PHAECO spray treatment), Example 7; format: in vivo; conditions: application rate 20 g/ha, china cabbage leaf discs sprayed, after 7 days
Method: Phaedon Test (PHAECO Spray Treatment)
as §1
as §2, with “an” for “an appropriate”, “china cabbage (Brassica pekinensis)” for “maize (Zea mays)”, “larvae” for “caterpillars”, “mustard beetle (Phaedon cochleariae).” for “armyworm (Spodoptera frugiperda).”
After 7 days, the efficacy in % is determined. 100% means that all beetle larvae were killed; 0% means that no beetle larvae were killed.

Boophilus microplus = Boophilus microplus test (BOOPMI injection), Example 11; format: in vivo; conditions: application rate 20 μg/animal, injected into abdomen, after 7 days
Method: Boophilus microplus Test (BOOPMI Injection) • Solvent: dimethyl sulphoxide To prepare an appropriate active ingredient formulation, 10 mg of active ingredient are mixed with 0.5 ml of solvent and the concentrate is diluted with solvent to the desired concentration. The active ingredient solution is injected into the abdomen (Boophilus microplus), and the animals are transferred to dishes and stored in a climate-controlled room. The efficacy was assessed by the number of fertile eggs laid. After 7 days, the efficacy in % is determined. 100% means that none of the ticks has laid any fertile eggs.

[5] = HPLC-MS, HPLC on reverse-phase column
[6] = HPLC, C18 reverse phase, 43° C., acidic range pH 2.7, calibration with alkan-2-ones

Compound	logP ([1]; HPLC-MS)	efficacy in % ([2]; application rate 100 g/ha) [%]	efficacy in % ([3]; application rate 100 g/ha) [%]	further results
CC(NC(=O)c1ccc(C=CC(=O)NC(c2cccc(C(F)(F)F)c2)C(F)(F)F)cc1Cl)c1nccs1 (mixture of isomers) [Ia-187]	HPLC-MS: logP = 3.4; mass	80		
CC(C)ONC(=O)c1ccc(/C=C/C(=O)NC(c2cccc(C(F)(F)F)c2)C(F)(F)F)cc1Cl (racemic) [Ia-194]	HPLC-MS: logP = 3.29; mass	90		
CC(C)(C#N)NC(=O)c1ccc(/C=C/C(=O)NC(c2cccc(C(F)(F)F)c2)C(F)(F)F)cc1Cl (racemic) [Ia-195]	HPLC-MS: logP = 3.34; mass	100	100	
O=C(/C=C/c1ccc(C(=O)Nc2ncccn2)c(Cl)c1)NC(c1cccc(C(F)(F)F)c1)C(F)(F)F (racemic) [Ia-197]	HPLC-MS: logP = 2.95; mass	90		
CCn1c(C(=O)NC(c2cccc(C(F)(F)F)c2)C(F)(F)F)cc2cc(C(=O)NC3CC3)c(Cl)cc21 (racemic) [Ic-26]		100	100	
CCNC(=O)c1ccc(/C=C/C(=O)NC(c2cccc(C(F)(F)F)c2)C(F)(F)F)cc1C(F)(F)F (centres unmarked) [Ia-64]	HPLC-MS: logP = 3.18; mass			efficacy in % ([3]; application rate 500 g/ha): 83%; efficacy in % [4]: 100%
CC(F)(F)CNC(=O)c1ccc(/C=C/C(=O)NC(c2cccc(C(F)(F)F)c2)C(F)(F)F)cc1Cl (centres unmarked) [Ia-111]	HPLC-MS: logP = 3.37 mass			efficacy in % [4]: 100%
CN(C)NC(=O)c1ccc(/C=C/C(=O)NC(c2cccc(C(F)(F)F)c2)C(F)(F)F)cc1C(F)(F)F (centres unmarked) [Ia-131]	HPLC-MS: logP = 3.05; mass	100	100	
COC(=O)C(C)NC(=O)c1ccc(/C=C/C(=O)NC(c2cccc(C(F)(F)F)c2)C(F)(F)F)cc1C(F)(F)F (centres unmarked) [Ia-132]	HPLC-MS: logP = 3.47; mass	80		efficacy in % (fertile eggs laid) (Boophilus microplus): 100%
O=C(/C=C/c1ccc(C(=O)NC2CCOC2=O)c(C(F)(F)F)c1)NC(c1cccc(C(F)(F)F)c1)C(F)(F)F (centres unmarked) [Ia-136]		100		efficacy in % (fertile eggs laid) (Boophilus microplus): 100%
CC(C)NC(=O)c1ccc(/C=C/C(=O)NC(c2cccc(C(F)(F)F)c2)C(F)(F)F)cc1Cl (centres unmarked) [Ia-150]	HPLC-MS: logP = 3.5; mass	100		efficacy in % (fertile eggs laid) (Boophilus microplus): 100%
O=C(/C=C/c1ccc(C(=O)NCc2ncccn2)c(Cl)c1)NC(c1cccc(C(F)(F)F)c1)C(F)(F)F (centres unmarked) [Ia-153]	HPLC-MS: logP = 2.94; mass	100		efficacy in % (fertile eggs laid) (Boophilus microplus): 100%
CC(NC(=O)c1ccc(/C=C/C(=O)NC(c2cccc(C(F)(F)F)c2)C(F)(F)F)cc1Cl)c1ccccn1 (centres unmarked) [Ia-154]	HPLC-MS: logP = 3.45; mass	90		efficacy in % (fertile eggs laid) (Boophilus microplus): 100%
CC(C#N)NC(=O)c1ccc(/C=C/C(=O)NC(c2cccc(C(F)(F)F)c2)C(F)(F)F)cc1Cl (centres unmarked) [Ia-160]	HPLC-MS: logP = 3.23; mass	100		
COCC(C)NC(=O)c1ccc(/C=C/C(=O)NC(c2cccc(C(F)(F)F)c2)C(F)(F)F)cc1Cl (centres unmarked) [Ia-164]	HPLC-MS: logP = 3.33; mass	100		efficacy in % (fertile eggs laid) (Boophilus microplus): 100%
O=C(/C=C/c1ccc(C(=O)Nc2ccc(Cl)cn2)c(Cl)c1)NC(c1cccc(C(F)(F)F)c1)C(F)(F)F (centres unmarked) [Ia-168]	HPLC-MS: logP = 4.28; mass	80	100	
O=C(/C=C/c1ccc(C(=O)NCc2ccco2)c(C(F)(F)F)c1)NC(c1cccc(C(F)(F)F)c1)C(F)(F)F (centres unmarked) [Ia-169]	HPLC-MS: logP = 3.63; mass	100		
COC(=O)N(C)NC(=O)c1ccc(/C=C/C(=O)NC(c2cccc(C(F)(F)F)c2)C(F)(F)F)cc1C(F)(F)F (centres unmarked) [Ia-170]	HPLC-MS: logP = 3.23; mass	100	83	
CC(C)NC(=O)c1ccc(/C=C/C(=O)NC(c2cccc(C(F)(F)F)c2)C(F)(F)F)cc1Br (centres unmarked) [Ia-174]	HPLC-MS: logP = 3.48; mass	100		

Compound	logP ([1]; HPLC-MS)	efficacy in % ([2]; application rate 100 g/ha) [%]	efficacy in % ([3]; application rate 100 g/ha) [%]	further results
O=C(/C=C/c1ccc(C(=O)NC(CF)CF)c(Br)c1)NC(c1cccc(C(F)(F)F)c1)C(F)(F)F (centres unmarked) [Ia-175]	HPLC-MS: logP = 3.35; mass	100	83	
O=C(/C=C/c1ccc(C(=O)NC2CCC2)c(Br)c1)NC(c1cccc(C(F)(F)F)c1)C(F)(F)F (centres unmarked) [Ia-179]	HPLC-MS: logP = 3.61; mass	90	83	
O=C(/C=C/c1ccc(C(=O)NCC2CC2)c(Br)c1)NC(c1cccc(C(F)(F)F)c1)C(F)(F)F (centres unmarked) [Ia-180]	HPLC-MS: logP = 3.55; mass	90		
O=C(/C=C/c1ccc(C(=O)Nc2ccncn2)c(Cl)c1)NC(c1cccc(C(F)(F)F)c1)C(F)(F)F (centres unmarked) [Ia-184]	HPLC-MS: logP = 3.22; mass	100		
CN(C(=O)c1ccc(/C=C/C(=O)NC(c2cccc(C(F)(F)F)c2)C(F)(F)F)cc1C(F)(F)F)c1ccccn1 (centres unmarked) [Ia-239]	HPLC-MS: logP = 2.07; mass	90	100	
CCC(=O)NCc1ccc(/C=C/C(=O)NC(c2ccc(F)c(Cl)c2)C(F)(F)F)cc1C(F)(F)F (centres unmarked) [Ia-251]	HPLC-MS: logP = 3.47; mass	80	100	
CC(=O)N(Cc1ccccn1)Cc1ccc(/C=C/C(=O)NC(c2cccc(C(F)(F)F)c2)C(F)(F)F)cc1F (centres unmarked) [Ia-252]	HPLC-MS: logP = 2.72; mass	100	100	
CC(=O)N(Cc1ccc(/C=C/C(=O)NC(c2cccc(C(F)(F)F)c2)C(F)(F)F)cc1)Cc1ccccn1 (centres unmarked) [Ia-254]	HPLC-MS: logP = 2.65; mass	80		
O=C(/C=C/c1ccc(C(=O)NC2CC2)c(C(F)(F)F)c1)NC(c1cccc(SC(F)(F)F)c1)C(F)(F)F (centres unmarked) [Ia-256]	HPLC-MS: logP = 3.51; mass	100	100	
CCC(=O)NCc1ccc(/C=C/C(=O)NC(c2cccc(C(F)(F)F)c2)C(F)(F)F)cc1F (centres unmarked) [Ia-276]		100	100	logP [1, 5]: HPLC-MS: logP = 3.12; mass
CCC(=O)NCc1ccc(/C=C/C(=O)NC(c2ccc(F)c(Cl)c2)C(F)(F)F)cc1F (centres unmarked) [Ia-277]		100	100	logP [1, 5]: HPLC-MS: logP = 3.06; mass
O=C(/C=C/c1ccc(C(=O)NC2CC2)c(C(F)(F)F)c1)NC(c1ccc(F)c(Cl)c1)C(F)(F)F (centres unmarked) [Ia-279]		100	100	logP [1, 5]: HPLC-MS: logP = 3.33; mass
O=C(/C=C/c1ccc(C(=O)NC2CC2)c(C(F)(F)F)c1)NC(c1ccc(F)c(C(F)(F)F)c1)C(F)(F)F (centres unmarked) [Ia-280]		100	100	logP [1, 5]: HPLC-MS: logP = 3.46; mass
CCC(=O)NCc1ccc(/C=C/C(=O)NC(c2ccc(F)c(C(F)(F)F)c2)C(F)(F)F)cc1 (centres unmarked) [Ia-282]		90	100	logP [1, 5]: HPLC-MS: logP = 3.11; mass
O=C(NCc1ccc2oc(C(=O)NC(c3cccc(C(F)(F)F)c3)C(F)(F)F)cc2c1)c1ccccn1 (centres unmarked) [Ic-12]				logP [1, 6]: HPLC-MS: logP = 3.62; mass; efficacy in % ([2]; application rate 500 g/ha): 80%
O=C(NC(c1cc(Cl)cc(C(F)(F)F)c1)C(F)(F)F)c1cc2cc(Cl)c(C(=O)NC3CC3)cc2[nH]1 (centres unmarked) [Ic-20]				logP [1, 6]: HPLC-MS: logP = 3.47; mass; efficacy in % [4]: 100%
O=C(NC(c1ccc(Cl)c(Cl)c1)C(F)(F)F)c1cc2cc(Cl)c(C(=O)NC3CC3)cc2[nH]1 (centres unmarked) [Ic-21]				logP [1, 6]: HPLC-MS: logP = 3.28; mass; efficacy in % [4]: 100%
C/C(=C\C(=O)NC(c1cccc(C(F)(F)F)c1)C(F)(F)F)c1ccc(C(=O)NC(C)C)c(C(F)(F)F)c1 (centres unmarked) [Id-4]		90		logP [1, 6]: HPLC-MS: logP = 3.75; mass
